Measured values published in US12611456B2, “Use of thiazole amide compounds for modulating human immune response” (Children's Medical Center Corporation, priority 2019, dated 2026).
“Also recorded” adds a separate entry of the source.

Experiments:
[1] = system: NF-κB; experiment: THP1-NF-κB reporter cell line, luminescence; assay type: cell-based, human; details: THP1-NF-κB cells, 100 to 0.02 μM
From the text: (§1) The THP1-NF-κB Lucia, THP1-dual NF-κB/IRF parent cell line, knocked out for MyD88 (THP1-AMyD88), TBK1 (THP1-ΔTBK1), IRF3 (THP1-AIRF3), cGAS (THP1-AcGAS), STING (THP1-ASTING), or expressing murine STING were obtained from Invivogen (San Diego, CA). THP1-derived cell lines are human monocytic cells derived from the blood of a child with leukemia and contain NF-κB- and IRF-inducible reporter construct to allow colorimetric- or luminescence-based assessment of NF-κB and IRF activities. THP1 cells were cultured in RPMI 1640 supplemented with 10% non-heat inactivated fetal bovine serum (FBS), 10 mM HEPES, 1.0 mM sodium pyruvate, 50 ug/ml Pen-Strep, and 100 ug/mL Normocin™. Once cultured, the cells were stored in a 37° C. incubator with 5% CO2 and a humidified atmosphere. Cells were passaged every 2-3 days and not allowed to exceed a concentration of 2.0×10^6 cells/ml media.
THP1-NF-κB cells between passage 15 and 18 and suspended in culture medium were dispensed into 384-well black clear-bottom plates (Corning 3712) at 30,000 cells/30 μl/well using a Combi liquid dispenser. To allow comparison to a benchmark small molecule with known immune stimulating activity, cells at the same concentration were stimulated with 50 μM R848, a TLR7/8 agonist, in 0.3% DMSO and added to every other well of column 24, which was left empty of cells, by multichannel pipette at the same volume. Five μl of 700 nM Phorbol myristate acetate (PMA) in THP1 culture media and 2.3% DMSO, a known peripheral blood cell mitogen, was added to every other well of column 23 by multichannel pipette (final concentration in well: 100 nM in 0.3% DMSO). Five μl of THP1 culture media with 2.3% DMSO was added to the remaining wells of column 23 by multichannel pipette (final concentration 0.3% DMSO). One hundred nl aliquots of library compounds diluted in 100% DMSO were transferred from their original 384-well plates to the assay plates using a Seiko pin transfer machine. Each library plate was pinned in duplicate, yielding two assay plates with identical conditions for comparison. Plates were then incubated for 24 hours at 37 C with 5% CO2 in humid conditions. Following incubation, 10 μL of supernatant was removed from each well and transferred to a white plate (Corning 3570) using a Vprep liquid transfer machine. 10 μL of recombinant Lucia protein (Invivogen) diluted 1:2000 in THP1 culture media was added to empty well 24P. Using a Combi liquid dispenser, 50 μL/well of Quanti-Luc substrate (Invivogen) diluted 1:3 in sterile water was added to the assay plate. Immediately after adding the substrate, the luminescence was read using a PerkinElmer Envision plate reader. This assay was adapted to a 96 well format to confirm and expand the HTS results.

[2] = system: IRF; experiment: THP1-ISG reporter cell line, luminescence; assay type: cell-based, human; details: THP1-ISG cells, 100 to 0.02 μM
From the text: High throughput screen (HTS) overview: To identify small molecule immunomodulators/adjuvants that robustly activate human immune cells, ˜200,000 small molecules were screened and tested against THP1 cells. The chemical libraries screened included known bioactive and commercial libraries from various sources including commercial libraries such as ChemDiv, ChemBridge, and Asinex. All libraries were owned and provided by the Institute of Chemistry and Cell Biology (ICCB)—Longwood (Harvard Medical School). The project primary screen incorporated two distinct arms: a) a luciferase-based screen which corresponds to the relative activation of the human NFκB Reporter gene; and b) a fluorescence-based screen, corresponding to the phenotypic adherence, a distinct marker of cell activation, of the THP1 cells. In a secondary luciferase-based screen IRF-inducing activities of selected hits using a THP1-ISG reporter cell line were evaluated. Here, discovery of a thiazole amide small molecule family with both NFκB/IRF-inducing and leukocyte adherence-inducing activities towards human leukocytes was observed.
Briefly, THP1-dual NF-κB/IRF parent and derived cell lines were resuspended at a concentration of 10^5 cells/200 μl of THP1 culture medium and transferred to a 96-well plate pre-loaded with compounds dissolved in DMSO. In selected experiments, THP1 cells were also stimulated with TNF and IFNβ as controls for NF-κB and IRF activities, respectively. After 22-24 hours of incubation (37° C., 5% CO2), plates were spun down (500×g, room temperature, 5 minutes) and supernatants were harvested to assess NF-κB and IRF activities by measuring the levels of SEAP and Lucia luciferase with Quanti-Blue and Quanti-Luc, respectively.

[3] = system: STING; experiment: NF-κB and IRF activities in THP1 cells knocked out for cGAS or STING; assay type: cell-based, human; details: 25 μM, 22-24 hr, knockout vs parent THP1 cells
From the text: as §1
(§2) Briefly, THP1-dual NF-κB/IRF parent and derived cell lines were resuspended at a concentration of 10^5 cells/200 μl of THP1 culture medium and transferred to a 96-well plate pre-loaded with compounds dissolved in DMSO. In selected experiments, THP1 cells were also stimulated with TNF and IFNβ as controls for NF-κB and IRF activities, respectively. […]

[4] = system: IRF; experiment: IRF activity in THP1-dual NF-κB/IRF reporter cells; assay type: cell-based, human; details: 22-24 hr, 100, 25, 6.25 and 1.56 μM, fold over DMSO
From the text: as §1, §2

[5] = system: C57BL/6 mice; experiment: Influenza rHA immunization of mice, anti-rHA IgG by ELISA; details: rHA + compound vs rHA alone; for adjuvant activity: anti-rHA IgG titers: prime Day 0, boost Day 28, serum Day 28 and Day 42, i.m., 100 nmol
Description: C57BL/6 mice were obtained from Charles River Laboratories and housed in specific pathogen-free conditions in the animal research facilities at Boston Children's Hospital.
For immunization experiments, adult mice were immunized intramuscularly (i.m.) in the right posterior thigh with 50 μl of vaccine containing 0.33 μg of each of the following recombinant influenza virus hemagglutinins (rHA): A/Michigan/45/2015 (H1N1), A/Hong Kong/4801/2014 (H3N2), and B/Brisbane/60/2008, contained in the 2016-2017 formulation of the FluBlok vaccine (Protein Sciences Corp.). Mice were immunized with a prime-boost schedule (two injections four weeks apart). Vaccine in all experimental groups was formulated with 10% (v/v) DMSO and 5% (v/v) Tween-80. As indicated for specific experimental groups, vaccine was also formulated with compound 057 (100 nmol, final DMSO concentration 10%). Serum was collected 28 days post-prime (pre-boost blood sample) and 14 days post-boost for antibody detection. rHA-specific IgG were quantified by ELISA. High binding flat bottom 96-well plates (Corning Life Sciences) were coated with 1 μg/ml rHA in carbonate buffer pH 9.6, incubated overnight at 4° C. and blocked with PBS+BSA 1% (Sigma-Aldrich) for 1 h at room temperature (RT). Then, sera from vaccinated mice were added with an initial dilution of 1:100 and 1:4 serial dilutions in PBS+BSA 1% and incubated for 2 hrs at RT. Plates were then washed and incubated for 1 hr at RT with HRP-conjugated anti-mouse IgG (Southern Biotech). At the end of the incubation plates were washed again and developed with tetramethylbenzidine (BD Biosciences) for 5 minutes, then stopped with 1 N H2SO4. The optical density was read at 450 nm Versamax microplate reader with SoftMax Pro Version 5 (both from Molecular Devices) and endpoint titers were calculated using as cutoff three times the optical density of the background.

[6] = system: THP1-NF-κB cells; experiment: Expression of co-stimulatory molecules CD80 and CD86 by flow cytometry; assay type: cell-based, human; details: 33 μM
Description: (§3) Following incubation and supernatant transfer described above, each black assay plate was manually washed. First, remaining suspension cells were expelled into a bath of 15% bleach by shaking the plate upside down. The plate was then submerged in a 7 L bath of 1×PBS. Once submerged, each plate was shaken vigorously side-to-side to release any air bubbles forming in the wells. The plate was then removed and shaken into the bleach bath once again. This process was repeated 3 times per plate. 30 μL/well of a mix of 2 μg/mL Hoechst 33342 in PBS with 1% Para-formaldehyde was added using a Combi liquid dispenser to the washed assay plates. Plates were left in the dark to stain and fix for 20 minutes. Washed and stained assay plates were then loaded onto an Acumen laser scanning cytometer. Total fluorescence area and number of objects (nuclei) were measured using the instrument for each well. This assay was adapted to a 96 well format to confirm and expand the HTS results. […] After 24 hours of incubation (37° C., 5% CO2), plates were washed with PBS to determine the number of adherent cells Alternatively, plates were spun down (500×g, room temperature, 5 minutes) and cells were harvested for staining with fluorescent Annexin V or antibodies against co-stimulatory markers CD80 and CD86 (Biolegend) according to the manufacturer's protocols and analyzed by flow cytometry (BD LSRFortessa).

[7] = system: MyD88; experiment: NF-κB and IRF activities in THP1 cells knocked out for MyD88, TBK1 or IRF3; assay type: cell-based, human; details: 25 μM, 22-24 hr, knockout vs parent THP1 cells
From the text: as §1, §2

[8] = target: T1, murine STING (Mus musculus, UniProt Q3TBT3); experiment: NF-κB and IRF activities in THP1-dual reporter cells expressing murine STING; assay type: cell-based; details: 25 μM, 22-24 hr, fold over DMSO
T1 construct: host or cells: THP1-dual NF-κB/IRF reporter cells (human monocytic line) expressing murine STING
T1 sequence (Q3TBT3 1-378): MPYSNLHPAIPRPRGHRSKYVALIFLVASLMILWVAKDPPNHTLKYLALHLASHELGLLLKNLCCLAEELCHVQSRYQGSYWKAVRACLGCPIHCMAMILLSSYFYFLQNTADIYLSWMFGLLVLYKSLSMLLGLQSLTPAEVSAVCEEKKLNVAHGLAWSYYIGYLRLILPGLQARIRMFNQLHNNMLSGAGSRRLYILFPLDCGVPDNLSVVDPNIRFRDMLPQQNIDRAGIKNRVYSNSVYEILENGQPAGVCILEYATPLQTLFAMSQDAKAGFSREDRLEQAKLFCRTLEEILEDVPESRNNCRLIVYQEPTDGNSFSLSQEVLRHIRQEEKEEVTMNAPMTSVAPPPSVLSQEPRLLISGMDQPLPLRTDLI
From the text: as §1, §2

[9] = system: THP1-NF-κB cells; experiment: THP1 cell adherence assay; assay type: cell-based, human; details: 33 μM, PMA and R848 positive controls
Description: as §3

[10] = system: NF-κB; experiment: NF-κB activity in THP1-dual NF-κB/IRF reporter cells; assay type: cell-based, human; details: 22-24 hr, 100, 25, 6.25 and 1.56 μM, fold over DMSO
From the text: as §1, §2

[11] = system: THP1-NF-κB cells; experiment: Annexin V staining for apoptotic cells; assay type: cell-based, human; details: 33 μM
Description: as §3

COc1ccc(C(=O)Nc2nc(CC(=O)Nc3nc4ccc(S(C)(=O)=O)cc4s3)cs2)cc1 [Compound 57.2]
NFκB-inducing activity (RLU) [1]: comparable to or greater than the parent molecule 057 | NFκB-inducing activity (RLU) ([1]; listed as 057.2): concentration-dependent activity | IRF-inducing activity (RLU) [2]: comparable to or greater than the parent molecule 057 | IRF-inducing activity (RLU) ([2]; listed as 057.2): concentration-dependent activity

COc1ccc(C(=O)Nc2nc(CC(=O)Nc3nc4ccccc4s3)cs2)cc1OC [Compound 57.3]
NFκB-inducing activity (RLU) [1]: comparable to or greater than the parent molecule 057 | NFκB-inducing activity (RLU) ([1]; listed as 057.3): concentration-dependent activity | IRF-inducing activity (RLU) [2]: comparable to or greater than the parent molecule 057 | IRF-inducing activity (RLU) ([2]; listed as 057.3): concentration-dependent activity

CCOc1ccc2nc(NC(=O)Cc3csc(NC(=O)c4cc(OC)cc(OC)c4)n3)sc2c1 [Compound 057]
dependence of NF-κB and IRF activities on STING [3]: STING-dependent | IRF activity [4]: dose-dependent response; also recorded: elicited both NFκB and IRF activities; also recorded: elicits | adjuvant activity: anti-rHA IgG titers [5]: exerts adjuvant activity in vivo; also recorded: substantially higher antibody titers; also recorded: demonstrates in vivo adjuvanticity in mice | adjuvant activity: anti-rHA IgG titers ([5]; listed as PVP-057): demonstrates in vivo adjuvanticity in mice | adjuvant activity: rHA-specific IgG titers ([5]; single i.m. injection Day 0, serum Day 14): exerts adjuvant activity in vivo; also recorded: substantially higher antibody titers | NFκB-inducing activity (RLU) [1]: concentration-dependent activity; also recorded: robustly induces both NFκB and IRF activities | expression of co-stimulatory molecules CD80 and CD86 (MFI) [6]: induces the expression co-stimulatory molecules; also recorded: elicited the expression of surface co-stimulatory molecules; also recorded: elicits | dependence of NF-κB and IRF activities on MyD88 [7]: MyD88-independent | activation of murine STING (NF-κB and IRF activities) [8]: activates murine STING; also recorded: activated THP1 cells expressing murine STING | IRF-inducing activity (RLU) [2]: concentration-dependent activity; also recorded: robustly induces both NFκB and IRF activities | cell adherence (number of adherent cells) [9]: induces cell adherence; also recorded: elicits human leukocyte adherence | NF-κB activity [10]: dose-dependent response; also recorded: elicited both NFκB and IRF activities; also recorded: elicits | apoptosis (Annexin V+ cells) [11]: does not induce apoptosis; also recorded: without inducing cellular apoptosis
